The target in one test is human RIPK3 (Homo sapiens (Human), UniProt Q9Y572). In words: KINOMEscan binding assay, human RIPK3. As to conditions: Table 21. The procedure, abridged: (§1)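 Kd values come from dose-response fits to the Hill equation (Hill slope −1, Levenberg–Marquardt least squares). Compound competed with bead-bound ligand for tagged kinase, and remaining kinase was measured by qPCR after elution. Dilution series: 11 points, 3-fold, 1% DMSO final, top 30,000 nM in most runs.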

The next test has as its target human RIPK1 (Homo sapiens (Human), UniProt Q13546). Put plainly: KINOMEscan binding assay, human RIPK1. As to conditions: Table 21. Put shortly:
as §1

The next test addresses human MLKL (full length) (Homo sapiens (Human), UniProt Q8NB16). In words: KINOMEscan binding assay, human MLKL (full length). As to conditions: KINOMEscan, Table 21; read-out: Human MLKL (full-length) (KD). The procedure: Binding affinity of the test compounds for human MLKL (full length), mouse MLKL (full length), human RIPK1 and human RIPK3 was determined using the KINOMEscan™ technology developed by DiscoverX (USA; http://www.discoverx.com). The assay was conducted according to manufacturer instructions.
Kinase assays. For most assays, kinase-tagged T7 phage strains were grown in parallel in 24-well blocks in an E. coli host derived from the BL21 strain. E. coli were grown to log-phase and infected with T7 phage from a frozen stock (multiplicity of infection=0.4) and incubated with shaking at 32° C. until lysis (90-150 minutes). The lysates were centrifuged (6,000×g) and filtered (0.2 μm) to remove cell debris. The remaining kinases were produced in HEK-293 cells and subsequently tagged with DNA for qPCR detection. […] The liganded beads were blocked with excess biotin and washed with blocking buffer (SeaBlock (Pierce), 1% BSA, 0.05% Tween 20, 1 mM DTT) to remove unbound ligand and to reduce non-specific phage binding. […] All reactions were performed in polypropylene 384-well plates in a final volume of 20 μL. […] The kinase concentration in the eluates was measured by qPCR.
An 11-point 3-fold serial dilution of each test compound was prepared in 100% DMSO at 100× final test concentration and subsequently diluted to 1× in the assay (final DMSO concentration=1%). Most Kos were determined using a compound top concentration=30,000 nM.
KD for each test compound was calculated with a standard dose-response curve using the Hill equation (equation (1)): […]
The Hill Slope was set to −1.
Curves were fitted using a non-linear least square fit with the Levenberg-Marquardt algorithm.

The source of these data is patent US20250115598A1 (Anaxis Pharma Pty Ltd, priority 2021, published 2025).

For orientation: Kd means the equilibrium constant for the complex coming apart.

human RIPK1, sequence (Q13546 whole entry): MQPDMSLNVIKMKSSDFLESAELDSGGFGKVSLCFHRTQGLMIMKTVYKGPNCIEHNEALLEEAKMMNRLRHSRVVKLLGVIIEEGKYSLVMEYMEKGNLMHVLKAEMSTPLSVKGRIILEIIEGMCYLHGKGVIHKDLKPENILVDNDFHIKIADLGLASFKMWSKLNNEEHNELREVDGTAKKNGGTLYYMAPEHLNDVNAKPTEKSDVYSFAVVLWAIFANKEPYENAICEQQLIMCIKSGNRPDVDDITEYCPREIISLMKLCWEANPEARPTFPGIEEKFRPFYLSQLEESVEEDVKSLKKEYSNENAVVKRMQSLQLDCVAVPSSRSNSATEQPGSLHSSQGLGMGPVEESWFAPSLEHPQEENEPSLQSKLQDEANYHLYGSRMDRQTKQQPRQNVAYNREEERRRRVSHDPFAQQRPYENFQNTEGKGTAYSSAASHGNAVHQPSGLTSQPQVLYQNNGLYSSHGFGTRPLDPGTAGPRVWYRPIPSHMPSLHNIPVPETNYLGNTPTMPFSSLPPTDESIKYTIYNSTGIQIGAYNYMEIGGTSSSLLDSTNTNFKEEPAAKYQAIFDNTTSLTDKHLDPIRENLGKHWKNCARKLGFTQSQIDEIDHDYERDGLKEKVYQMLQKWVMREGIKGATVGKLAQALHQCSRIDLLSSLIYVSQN
human RIPK3, sequence (Q9Y572 whole entry): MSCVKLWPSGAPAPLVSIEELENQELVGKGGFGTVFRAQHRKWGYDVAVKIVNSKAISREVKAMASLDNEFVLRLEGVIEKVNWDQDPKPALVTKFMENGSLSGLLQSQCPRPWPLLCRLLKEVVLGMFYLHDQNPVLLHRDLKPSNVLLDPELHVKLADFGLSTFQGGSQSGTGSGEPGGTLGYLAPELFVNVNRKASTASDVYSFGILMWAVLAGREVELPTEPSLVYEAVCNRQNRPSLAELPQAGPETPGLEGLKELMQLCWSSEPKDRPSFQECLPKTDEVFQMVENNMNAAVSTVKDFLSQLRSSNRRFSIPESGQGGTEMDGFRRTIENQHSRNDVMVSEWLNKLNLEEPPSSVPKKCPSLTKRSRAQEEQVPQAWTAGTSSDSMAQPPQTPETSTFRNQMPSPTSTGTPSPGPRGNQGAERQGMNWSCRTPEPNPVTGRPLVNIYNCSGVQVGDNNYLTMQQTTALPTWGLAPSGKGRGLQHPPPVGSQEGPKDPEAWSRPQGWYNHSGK
human MLKL (full length), sequence (Q8NB16 whole entry): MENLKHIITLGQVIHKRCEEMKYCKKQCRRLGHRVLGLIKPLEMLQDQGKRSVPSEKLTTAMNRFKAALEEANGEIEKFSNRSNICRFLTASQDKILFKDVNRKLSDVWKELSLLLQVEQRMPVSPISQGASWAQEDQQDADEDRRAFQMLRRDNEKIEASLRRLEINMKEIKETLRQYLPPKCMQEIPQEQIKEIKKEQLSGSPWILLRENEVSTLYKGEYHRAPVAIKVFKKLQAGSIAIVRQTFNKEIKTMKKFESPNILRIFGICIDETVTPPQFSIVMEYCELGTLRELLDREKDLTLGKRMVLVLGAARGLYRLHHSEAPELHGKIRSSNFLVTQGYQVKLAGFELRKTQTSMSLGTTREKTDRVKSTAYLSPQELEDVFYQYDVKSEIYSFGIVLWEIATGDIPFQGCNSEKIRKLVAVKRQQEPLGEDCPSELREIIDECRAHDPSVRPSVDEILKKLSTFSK

Turning to `C[C@H](Oc1cc(-c2nn(C)c3c(-c4cnc(N5CCOCC5)nc4)cnc(N)c23)ccc1NS(=O)(=O)C(F)F)c1ccc(F)cc1` [Compound 110, (S)-N-(4-(4-amino-1-methyl-7-(2-morpholinopyrimidin-5-yl)-1H-pyrazolo[4,3-c]pyridin-3-yl)-2-(1-(4-fluorophenyl)ethoxy)phenyl)-1,1-difluoromethanesulfonamide], the Kd was greater than 10 µM on human RIPK3, greater than 10 µM on human RIPK1 and less than 0.001 µM on human MLKL (full length).

Turning to `Cc1cc(-c2cnc(N)c3c(-c4ccc(NS(=O)(=O)C(F)F)c(O[C@@H](C)c5ccc(F)cc5)c4)nn(C)c23)ccn1` [Compound 24, (S)-N-(4-(4-amino-1-methyl-7-(2-methylpyridin-4-yl)-1H-pyrazolo[4,3-c]pyridin-3-yl)-2-(1-(4-fluorophenyl)ethoxy)phenyl)-1,1-difluoromethanesulfonamide], the Kd is greater than 10 µM at human RIPK3, greater than 10 µM at human RIPK1 and less than 0.001 µM on human MLKL (full length).

For the compound `C[C@H](Oc1cc(-c2nn(C)c3c(-c4cnn(C5CCN(C)C(C)(C)C5)c4)cnc(N)c23)ccc1NS(=O)(=O)C(F)F)c1ccc(Cl)cc1` (stereo partly drawn) [Compound 159, N-(4-(4-amino-1-methyl-7-(1-(1,2,2-trimethylpiperidin-4-yl)-1H-pyrazol-4-yl)-1H-pyrazolo[4,3-c]pyridin-3-yl)-2-((S)-1-(4-chloro-phenyl)ethoxy)phenyl)-1,1-difluoro-methanesulfonamide], the Kd was greater than 10 µM on human RIPK3, greater than 10 µM at human RIPK1 and less than 0.001 µM at human MLKL (full length).

In the case of `C[C@H](Oc1cc(-c2nn(C)c3c(-c4cnn(C5COC5)c4)cnc(N)c23)ccc1NS(=O)(=O)C(F)F)c1ccc(F)cc1` [Compound 38, (S)-N-(4-(4-amino-1-methyl-7-(1-(oxetan-3-yl)-1H-pyrazol-4-yl)-1H-pyrazolo[4,3-c]pyridin-3-yl)-2-(1-(4-fluorophenyl)ethoxy)phenyl)-1,1-difluoromethanesulfonamide], the Kd at human RIPK3 was greater than 10 µM; on human RIPK1, greater than 10 µM; at human MLKL (full length) it was less than 0.001 µM.

`Nc1ncc(-c2cnn(CCO)c2)c2occ(-c3ccc(NS(=O)(=O)C(F)F)c(OCc4ccc(F)cc4)c3)c12` [Compound 6, N-(4-(4-amino-7-(1-(2-hydroxyethyl)-1H-pyrazol-4-yl)furo[3,2-c]pyridin-3-yl)-2-((4-fluorobenzyl)oxy)phenyl)-1,1-difluoro-methanesulfonamide]: the results for the Kd on human RIPK3, on human RIPK1 and at human MLKL (full length) were greater than 10 µM, greater than 10 µM and less than 0.001 µM, respectively.

As for `C[C@H](Oc1cc(-c2cnn3c(-c4cnn(CCO)c4)cnc(N)c23)ccc1NS(=O)(=O)C(F)F)c1ccc(F)cc1` [Compound 37, (S)-N-(4-(4-amino-7-(1-(2-hydroxyethyl)-1H-pyrazol-4-yl)pyrazolo[1,5-a]pyrazin-3-yl)-2-(1-(4-fluorophenyl)ethoxy)phenyl)-1,1-difluoromethane-sulfonamide], the values for the equilibrium dissociation constant (Kd) at human RIPK3, on human RIPK1 and at human MLKL (full length) were greater than 10 µM, greater than 10 µM and less than 0.001 µM, respectively.

As for `CCS(=O)(=O)Nc1ccc(-c2coc3c(-c4cnn(C5CCOCC5)c4)cnc(N)c23)cc1OCc1ccc(F)cc1` [Compound 3, N-(4-(4-amino-7-(1-(tetrahydro-2H-pyran-4-yl)-1H-pyrazol-4-yl)furo[3,2-c]pyridin-3-yl)-2-((4-fluorobenzyl)oxy)phenyl)ethanesulfonamide], the dissociation constant (Kd) was greater than 10 µM on human RIPK3, greater than 10 µM on human RIPK1 and less than 0.001 µM at human MLKL (full length).

On to `C[C@H](Oc1cc(-c2nn(C)c3c(-c4cnn(C5CCOCC5)c4)cnc(N)c23)ccc1NS(=O)(=O)C(F)F)c1cccc(Cl)c1` [Compound 122], for which the values for the dissociation constant Kd on human RIPK3, at human RIPK1 and at human MLKL (full length) were greater than 10 µM, greater than 10 µM and less than 0.001 µM, respectively.

Turning to `C[C@H](Oc1cc(-c2nn(C)c3c(-c4cnn(C5CN(CC(F)(F)F)C5)c4)cnc(N)c23)ccc1NS(=O)(=O)C(F)F)c1ccc(F)cc1` [Compound 77, (S)-N-(4-(4-amino-1-methyl-7-(1-(1-(2,2,2-trifluoroethyl)azetidin-3-yl)-1H-pyrazol-4-yl)-1H-pyrazolo[4,3-c]pyridin-3-yl)-2-(1-(4-fluorophenyl)ethoxy)phenyl)-1,1-difluoromethanesulfonamide], the figures for the equilibrium dissociation constant (Kd) at human RIPK3, at human RIPK1 and at human MLKL (full length) were greater than 10 µM, greater than 10 µM and less than 0.001 µM, respectively.

In the case of `CC(n1cc(-c2cnc(N)c3c(-c4ccc(NS(=O)(=O)C(F)F)c(O[C@@H](C)c5ccc(F)cc5)c4)nn(C)c23)cn1)C(F)(F)F` (stereo partly drawn) [Compound 142, N-(4-(4-amino-1-methyl-7-(1-(1,1,1-trifluoropropan-2-yl)-1H-pyrazol-4-yl)-1H-pyrazolo[4,3-c]pyridin-3-yl)-2-((S)-1-(4-fluorophenyl)ethoxy)phenyl)-1,1-difluoromethanesulfonamide], the Kd at human RIPK3 was greater than 10 µM; at human RIPK1 it was greater than 10 µM; at human MLKL (full length), less than 0.001 µM.

As to `C[C@H](Oc1cc(-c2nn(C)c3c(-c4ccncn4)cnc(N)c23)ccc1NS(=O)(=O)C(F)F)c1ccc(F)cc1` [Compound 40, (S)—N-(4-(4-amino-1-methyl-7-(pyrimidin-4-yl)-1H-pyrazolo[4,3-c]pyridin-3-yl)-2-(1-(4-fluorophenyl)ethoxy)phenyl)-1,1-difluoromethanesulfonamide], the Kd was greater than 10 µM at human RIPK3, greater than 10 µM at human RIPK1 and less than 0.001 µM on human MLKL (full length).

Consider `C[C@H](Oc1cc(-c2nn(C)c3c(C4=CCN(C)CC4)cnc(N)c23)ccc1NS(=O)(=O)C(F)F)c1ccc(F)cc1` [Compound 21, (S)-N-(4-(4-amino-1-methyl-7-(1-methyl-1,2,3,6-tetrahydropyridin-4-yl)-1H-pyrazolo[4,3-c]pyridin-3-yl)-2-(1-(4-fluorophenyl)ethoxy)phenyl)-1,1-difluoromethanesulfonamide], for which the equilibrium dissociation constant (Kd) at human RIPK3 was greater than 10 µM; at human RIPK1, greater than 10 µM; at human MLKL (full length), less than 0.001 µM.

For `Cc1cc(-c2ccc(NS(=O)(=O)C(F)F)c(OCc3ccc(F)cc3)c2)c2c(N)n[nH]c2n1` [Compound 70, N-(4-(3-Amino-6-methyl-1H-pyrazolo[3,4-b]pyridin-4-yl)-2-((4-fluorophenyl)methoxy)phenyl)-1,1-difluoromethanesulfonamide], the dissociation constant (Kd) on human RIPK3 is greater than 10 µM; on human RIPK1, greater than 10 µM; on human MLKL (full length) it was less than 0.001 µM.

For the compound `C[C@H](Oc1cc(-c2nn(C)c3c(-c4cnn(C5CC6(CNC6)C5)c4)cnc(N)c23)ccc1NS(=O)(=O)C(F)F)c1ccc(F)cc1` [Compound 78, (S)-N-(4-(7-(1-(2-azaspiro[3.3]heptan-6-yl)-1H-pyrazol-4-yl)-4-amino-1-methyl-1H-pyrazolo[4,3-c]pyridin-3-yl)-2-(1-(4-fluorophenyl)ethoxy)phenyl)-1,1-difluoromethane-sulfonamide], the Kd at human RIPK3 was greater than 10 µM; at human RIPK1 it was greater than 10 µM; on human MLKL (full length), less than 0.001 µM.

In the case of `C[C@H](Oc1cc(-c2nn(C)c3c(-c4cnn(C5(CC#N)COC5)c4)cnc(N)c23)ccc1NS(=O)(=O)C(F)F)c1ccc(F)cc1` [Compound 98, (S)-N-(4-(4-amino-7-(1-(3-(cyanomethyl)oxetan-3-yl)-1H-pyrazol-4-yl)-1-methyl-1H-pyrazolo[4,3-c]pyridin-3-yl)-2-(1-(4-fluorophenyl)ethoxy)phenyl)-1,1-difluoromethanesulfonamide], the Kd is greater than 10 µM at human RIPK3, greater than 10 µM at human RIPK1 and less than 0.001 µM on human MLKL (full length).

For the compound `Cc1ccc(-c2cnc(N)c3c(-c4ccc(NS(=O)(=O)C(F)F)c(O[C@@H](C)c5ccc(F)cc5)c4)nn(C)c23)cn1` [Compound 26, (S)-N-(4-(4-amino-1-methyl-7-(6-methylpyridin-3-yl)-1H-pyrazolo[4,3-c]pyridin-3-yl)-2-(1-(4-fluorophenyl)ethoxy)phenyl)-1,1-difluoromethanesulfonamide], the Kd on human RIPK3 was greater than 10 µM; on human RIPK1, greater than 10 µM; at human MLKL (full length), less than 0.001 µM.

Regarding `C[C@@H](Oc1cc(-c2nn(C)c3c(-c4cnn(C5CCOCC5)c4)cnc(N)c23)ccc1NS(=O)(=O)C(F)F)c1ccc(F)cc1` [Compound 121, (R)-N-(4-(4-amino-1-methyl-7-(1-(tetrahydro-2H-pyran-4-yl)-1H-pyrazol-4-yl)-1H-pyrazolo[4,3-c]pyridin-3-yl)-2-(1-(4-fluorophenyl)ethoxy)phenyl)-1,1-difluoromethane-sulfonamide], the dissociation constant (Kd) is greater than 10 µM at human RIPK3, greater than 10 µM at human RIPK1 and less than 0.001 µM on human MLKL (full length).
